Assay results taken from patent publication US7550558B2, “Antimicrobial peptides and methods for identifying and using such peptides” (priority 2001, dated 2009).
No end group written: not given here.

Key:
[1] = test system: Candida albicans
[2] = test system: Aspergillus nidulans
[3] = test system: Staphylococcus aureus
[4] = test system: Escherichia coli
[5] = test system: Micrococcus luteus
[6] = literature; cited from earlier work

Sequence | minimum inhibitory concentration (MIC) [1] [µg/mL] | minimum inhibitory concentration (MIC) [2] [µg/mL] | concentrations with no antibacterial effect (MIC) [3] [µg/mL] | concentrations with no antibacterial effect (MIC) [4] [µg/mL] | concentrations with no antibacterial effect (MIC) [5] [µg/mL] | cytotoxic property [6] | hemolytic property [6]
HPLKQYWWRPSI [PW2, HPLKQYWWRPSI] | 12.5 to 25 | 25 to 50 | > 200 | > 200 | > 200 | – | –
ILPWLWPWWPWRR [indolicidin] | – | – | – | – | – | cytotoxic | hemolytic
VRRFPWWWPFLRR [tritrpticin] | – | – | – | – | – | cytotoxic | hemolytic
